For data set [1], the system named is tumor necrosis factor (α). As to the kind of experiment: Cytokine Induction in Human Cells: tumor necrosis factor (α) secreted by PBMCs, ELISA. It counts as cell-based. Also on record: key to Lowest Effective Concentration (μM) Tumor Necrosis Factor: A “*” indicates that no induction was seen at any of the tested concentrations; generally the highest tested concentration was 10 or 30 μM. Particulars: incubated 18 to 24 hours, lowest concentration found to induce tumor necrosis factor; for minimal effective concentration: PBMC. From the text: (§1) An in vitro human blood cell system is used to assess cytokine induction. Activity is based on the measurement of interferon and tumor necrosis factor (α) (IFN and TNF, respectively) secreted into culture media as described by Testerman et. al. In “Cytokine Induction by the Immunomodulators Imiquimod and S-27609”, Journal of Leukocyte Biology, 58, 365-372 (September, 1995).
(§2) Whole blood from healthy human donors is collected by venipuncture into EDTA vacutainer tubes. Peripheral blood mononuclear cells (PBMCs) are separated from whole blood by density gradient centrifugation using Histopaque®-1077. The PBMCs are washed twice with Hank's Balanced Salts Solution and then are suspended at 3-4×10^6 cells/mL in RPMI complete. The PBMC suspension is added to 48 well flat bottom sterile tissue culture plates (Costar, Cambridge, Mass. or Becton Dickinson Labware, Lincoln Park, N.J.) containing an equal volume of RPMI complete media containing test compound.
(§3) The compounds are solubilized in dimethyl sulfoxide (DMSO). The DMSO concentration should not exceed a final concentration of 1% for addition to the culture wells
(§4) The solution of test compound is added at 60 μM to the first well containing RPMI complete and serial 3 fold dilutions are made in the wells. The PBMC suspension is then added to the wells in an equal volume, bringing the test compound concentrations to the desired range (0.12 to 30 μM). The final concentration of PBMC suspension is 1.5-2×10^6 cells/mL. The plates are covered with sterile plastic lids, mixed gently and then incubated for 18 to 24 hours at 37° C. in a 5% carbon dioxide atmosphere.
(§5) Following incubation the plates are centrifuged for 5-10 minutes at 1000 rpm (˜200×g) at 4° C. The cell-free culture supernatant is removed with a sterile polypropylene pipet and transferred to sterile polypropylene tubes. Samples are maintained at −30 to −70° C. until analysis. The samples are analyzed for interferon (α) and for tumor necrosis factor (α) by ELISA.
Tumor necrosis factor (α) (TNF)concentration is determined using ELISA kits available from Genzyme, Cambridge, Mass.; R&D Systems, Minneapolis, Minn.; or Pharmingen, San Diego, Calif. Results are expressed in pg/mL.
(§6) The table below lists the lowest concentration found to induce interferon and the lowest concentration found to induce tumor necrosis factor for each compound.
In general terms: ELISA stands for enzyme-linked immunosorbent assay.

In a further data set the test system is interferon (α). As to the kind of experiment: Cytokine Induction in Human Cells: interferon (α) secreted by PBMCs, ELISA. The note with it: PBMC, incubated 18 to 24 hours, lowest concentration found to induce interferon. It counts as cell-based.
Excerpt: as §1, §2, §3, §4, §5
Interferon (α) concentration is determined by ELISA using a Human Multi-Species kit from PBL Biomedical Laboratories, New Brunswick, N.J. Results are expressed in pg/mL.
as §6

For orientation: melting point means the temperature of the solid-liquid transition. One may read the minimal effective concentration as the smallest amount tested that counted as effective.

Where a name gives a salt, the structure may show the parent alone.

For the compound `Nc1nc2ccccc2c2c1ncn2CCOCC#Cc1ccccn1` (as salt: trifluoroacetate) [Example 21, 1-(2-{[3-(Pyrid-2-yl)-2-propynyl]oxy}ethyl)-1H-imidazo[4,5-c]quinolin-4-amine trifluoroacetate], the melting point is 129 to 131 °C.
In the case of `Nc1nc2ccccc2c2c1ncn2CCOCC#Cc1nccs1` [Example 2, 1-(2-{[3-(1,3-Thiazol-2-yl)-2-propynyl]oxy}ethyl)-1H-imidazo[4,5-c]quinolin-4-amine], the melting point lay in the range of 157 to 159 °C. Besides, in data set [1], the minimal effective concentration was 10 µM. Further, the minimal effective concentration in the data set with interferon (α) is 0.37 µM.
Take `Nc1nc2ccccc2c2c1ncn2CCOCCCc1ncccn1` [Example 4, 1-[2-(3-Pyrimidin-2-ylpropoxy)ethyl]-1H-imidazo[4,5-c]quinolin-4-amine]: the melting point lay in the range of 126 to 127 °C. The “Lowest Effective Concentration (μM) Tumor Necrosis Factor” value in data set [1] was “*”. This compound gave a minimal effective concentration in the data set on interferon (α) of 3.33 µM.
`Nc1nc2ccccc2c2c1ncn2CCOCCCc1ccncc1` [Example 5, 1-[2-(3-Pyridin-4-ylpropoxy)ethyl]-1H-imidazo[4,5-c]quinolin-4-amine]: the melting point is 160 to 162 °C. The compound also registered a minimal effective concentration in data set [1] of 0.37 µM. Further, the minimal effective concentration in the data set on interferon (α) amounted to 0.04 µM.
Compound `Nc1nc2ccccc2c2c1ncn2CCOCCCc1ccccn1` [Example 6, 1-[2-(3-Pyridin-2-ylpropoxy)ethyl]-1H-imidazo[4,5-c]quinolin-4-amine] yielded a melting point of 138 to 140 °C. The compound also displayed a minimal effective concentration in data set [1] of 1.11 µM. Besides, in the data set with interferon (α), the minimal effective concentration came out at 0.12 µM.
`Nc1nc2ccccc2c2c1ncn2CCOCCCc1nccs1` [Example 7, 1-{2-[3-(1,3-Thiazol-2-yl)propoxy]ethyl}-1H-imidazo[4,5-c]quinolin-4-amine] had a melting point of 134 to 135 °C. The “Lowest Effective Concentration (μM) Tumor Necrosis Factor” value in data set [1] was “*”. The compound also returned a minimal effective concentration in the data set with interferon (α) of 0.37 µM.
Consider `Nc1nc2ccccc2c2c1ncn2CCOCc1cn(CSc2ccccc2)nn1` [Example 11, 1-[2-({1-[(Phenylsulfanyl)methyl]-1H-1,2,3-triazol-4-yl}methoxy)ethyl]-1H-imidazo[4,5-c]quinoline-4-amine], for which the melting point lay within 182 to 184 °C. Further, in data set [1], the minimal effective concentration was found to be 0.04 µM. This compound came in with a minimal effective concentration with interferon (α) of 1.11 µM.
For `Nc1nc2ccccc2c2c1ncn2CCOCc1ccccn1` [Example 14, 1-[2-(Pyridin-2-ylmethoxy)ethyl]-1H-imidazo[4,5-c]quinolin-4-amine], the melting point lay within 196 to 198 °C. The minimal effective concentration in data set [1] was 0.37 µM. In addition, the minimal effective concentration with interferon (α) turned out to be 0.12 µM.
On the same counts, the results for `Nc1nc2ccccc2c2c1ncn2CCOCc1ccncc1` [Example 15, 1-[2-(Pyridin-4-ylmethoxy)ethyl]-1H-imidazo[4,5-c]quinolin-4-amine] are 159 to 161 °C, 3.33 µM and 1.11 µM.
For `Cc1noc(C)c1COCCn1cnc2c(N)nc3ccccc3c21` [Example 16, 1-{2-[(3,5-Dimethylisoxazol-4-yl)methoxy]ethyl}-1H-imidazo[4,5-c]quinolin-4-amine] the same measures were 213 to 215 °C, 10 µM and 3.33 µM.
For `Nc1nc2ccccc2c2c1ncn2CCOCC#Cc1cccs1` [Example 30, 1-{2-[(3-thien-2-ylprop-2-ynyl)oxy]ethyl}-1H-imidazo[4,5-c]quinolin-4-amine] the same measures were 148 to 150 °C, 3.33 µM and 0.37 µM.
With `Cn1c(COCCn2cnc3c(N)nc4ccccc4c32)cc2ccccc21` [Example 31, 1-{2-[(1-methyl-1H-indol-2-yl)methoxy]ethyl}-1H-imidazo[4,5-c]quinolin-4-amine], the melting point was in the range of 243 to 245 °C. Further, the minimal effective concentration in data set [1] stood at 3.33 µM. Besides, in the data set with interferon (α), the minimal effective concentration is 3.33 µM.
On to `Nc1nc2ccccc2c2c1ncn2CCOCCCc1cccs1` [Example 32, 1-[2-(3-thien-2-ylpropoxy)ethyl]-1H-imidazo[4,5-c]quinolin-4-amine], for which the melting point lay within 130.1 to 131.6 °C. In data set [1], the minimal effective concentration is 1.11 µM. Moreover, the minimal effective concentration in the data set on interferon (α) was 0.01 µM.
For `Cc1nc2c(N)nc3ccccc3c2n1CCOCCCc1cccnc1` [Example 34, 2-Methyl-1-[2-(3-pyridin-3-ylpropoxy)ethyl]-1H-imidazo[4,5-c]quinoline-4-amine] the same measures were 145 to 146 °C, 0.04 µM and 0.01 µM.
In the case of `Cc1nc2c(N)nc3c(c2n1CCOCCCc1cccnc1)CCCC3` [Example 37, 2-methyl-1-[2-(3-pyridin-3-ylpropoxy)ethyl]-6,7,8,9-tetrahydro-1H-imidazo[4,5-c]quinolin-4-amine], the melting point was in the range of 140 to 141 °C.

The values are drawn from patent US6664260B2, “Heterocyclic ether substituted imidazoquinolines” (3M Innovative Properties Company, priority 2000, dated 2003).
